Usually DC50 stands for the midpoint of the concentration-degradation curve. Low values mean degradation at low concentration, high ones degradation only at high concentration.

Drawing on patent US11306101B2 (Celgene Corporation, priority 2019, dated 2022), this text covers DC50 and Y for 24 molecules.

The target in the test is T1, CK1α (Homo sapiens, UniProt P48729+Q96SW2).
T1 construct: expressed in transfected cells
Kind of test: CK1α ePL degradation assay in MDS-L cells. It is filed as cell-based. The following applies: MDS-L cells expressing ePL-tagged CK1α; for DC50: concentration giving 50% CK1α degradation vs DMSO control; for Y: lowest measured CK1α level normalized to DMSO control. An outline of the steps: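 Degradation efficiency is reported as Y value, the minimum CK1α level (percent of DMSO control) across doses. Readout used InCELL Hunter luminescent detection after MDS-L cell exposure at 37° C for stated times, doses 10 μM down to 0.0005 μM in 3-fold steps.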

T1 sequence (P48729 whole entry): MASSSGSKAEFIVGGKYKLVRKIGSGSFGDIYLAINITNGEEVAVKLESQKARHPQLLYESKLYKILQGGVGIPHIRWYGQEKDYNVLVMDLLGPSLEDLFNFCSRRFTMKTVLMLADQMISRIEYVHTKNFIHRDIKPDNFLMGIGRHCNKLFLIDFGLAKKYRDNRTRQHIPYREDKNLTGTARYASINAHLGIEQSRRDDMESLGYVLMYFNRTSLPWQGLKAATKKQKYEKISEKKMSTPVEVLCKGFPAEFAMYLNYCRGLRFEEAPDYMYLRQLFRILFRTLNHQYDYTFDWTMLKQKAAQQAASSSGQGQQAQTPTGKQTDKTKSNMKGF
T1 sequence (Q96SW2 whole entry): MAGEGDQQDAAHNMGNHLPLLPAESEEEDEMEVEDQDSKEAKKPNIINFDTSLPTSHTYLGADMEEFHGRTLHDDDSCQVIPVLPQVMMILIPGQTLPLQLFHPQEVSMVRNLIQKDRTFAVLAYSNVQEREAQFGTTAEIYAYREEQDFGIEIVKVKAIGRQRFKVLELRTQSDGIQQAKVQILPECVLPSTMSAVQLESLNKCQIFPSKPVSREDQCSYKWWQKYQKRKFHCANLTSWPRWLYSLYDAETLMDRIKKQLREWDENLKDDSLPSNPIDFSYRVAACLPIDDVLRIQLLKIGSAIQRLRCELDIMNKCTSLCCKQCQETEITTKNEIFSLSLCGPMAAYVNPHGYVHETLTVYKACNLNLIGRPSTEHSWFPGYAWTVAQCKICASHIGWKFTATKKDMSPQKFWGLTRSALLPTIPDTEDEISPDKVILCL
T1 sequence (Q16531 whole entry partner): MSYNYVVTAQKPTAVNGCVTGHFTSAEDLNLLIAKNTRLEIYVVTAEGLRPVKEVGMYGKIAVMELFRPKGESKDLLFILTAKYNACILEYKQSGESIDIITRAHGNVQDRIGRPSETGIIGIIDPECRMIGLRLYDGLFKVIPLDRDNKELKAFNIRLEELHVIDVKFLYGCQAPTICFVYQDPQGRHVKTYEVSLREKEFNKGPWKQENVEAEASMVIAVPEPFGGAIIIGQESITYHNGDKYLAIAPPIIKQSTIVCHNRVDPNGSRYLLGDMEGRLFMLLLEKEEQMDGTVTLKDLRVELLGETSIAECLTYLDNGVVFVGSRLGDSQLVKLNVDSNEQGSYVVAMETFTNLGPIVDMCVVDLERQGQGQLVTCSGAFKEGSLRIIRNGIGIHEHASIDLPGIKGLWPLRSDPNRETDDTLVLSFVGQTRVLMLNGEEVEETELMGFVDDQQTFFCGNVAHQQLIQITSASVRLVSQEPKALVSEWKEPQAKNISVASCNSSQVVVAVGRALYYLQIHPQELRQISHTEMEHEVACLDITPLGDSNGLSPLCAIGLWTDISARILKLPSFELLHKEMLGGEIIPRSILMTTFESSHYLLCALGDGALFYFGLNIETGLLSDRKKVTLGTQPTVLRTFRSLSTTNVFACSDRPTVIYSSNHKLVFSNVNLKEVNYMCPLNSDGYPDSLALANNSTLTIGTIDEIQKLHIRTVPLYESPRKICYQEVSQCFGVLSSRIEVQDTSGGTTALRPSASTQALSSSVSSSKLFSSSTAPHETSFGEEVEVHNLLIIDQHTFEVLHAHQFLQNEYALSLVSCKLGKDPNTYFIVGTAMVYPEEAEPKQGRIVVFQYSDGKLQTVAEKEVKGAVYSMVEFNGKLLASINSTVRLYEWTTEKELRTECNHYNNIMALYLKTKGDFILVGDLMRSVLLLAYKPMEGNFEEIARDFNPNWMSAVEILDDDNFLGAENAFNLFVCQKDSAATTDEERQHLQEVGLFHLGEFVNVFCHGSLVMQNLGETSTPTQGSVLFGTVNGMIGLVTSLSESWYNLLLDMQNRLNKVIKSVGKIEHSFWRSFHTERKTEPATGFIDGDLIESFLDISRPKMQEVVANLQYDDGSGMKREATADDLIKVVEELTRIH

With `O=C1CCC(N2Cc3cc(C(=O)N[C@@H](CC(F)(F)F)c4ccc(F)cc4)ccc3C2=O)C(=O)N1` (stereo partly drawn) [Example 123, 2-(2,6-dioxopiperidin-3-yl)-1-oxo-N-((S)-3,3,3-trifluoro-1-(4-fluorophenyl)propyl)isoindoline-5-carboxamide], the DC50 fell in the range of 100 to 500 nM and the Y result is recorded as “** (a Y value (shown as**) of 20%<Y≤35%)”.

As for `CC(C)[C@@H](NC(=O)c1ccc2c(c1)CN(C1CCC(=O)NC1=O)C2=O)c1ccccc1` (stereo partly drawn) [Example 124, 2-(2,6-dioxopiperidin-3-yl)-N-((R)-2-methyl-1-phenylpropyl)-1-oxoisoindoline-5-carboxamide], the DC50 is under 100 nM and the Y entry is reported as “* (a Y value (shown as *) of 0<Y≤20%)”.

`O=C1CCC(N2Cc3cc(C(=O)N[C@H](c4cccc(C(F)(F)F)n4)C(F)(F)F)ccc3C2=O)C(=O)N1` (stereo partly drawn) [Example 125, 2-(2,6-dioxopiperidin-3-yl)-1-oxo-N-((R)-2,2,2-trifluoro-1-(6-(trifluoromethyl)pyridin-2-yl)ethyl)isoindoline-5-carboxamide]: the 50% degradation concentration (DC50) was under 100 nM and the Y result is recorded as “* (a Y value (shown as *) of 0<Y≤20%)”.

For the molecule `O=C1CCC(N2Cc3cc(C(=O)N[C@H](c4ccc(C(F)(F)F)cn4)C(F)(F)F)ccc3C2=O)C(=O)N1` (stereo partly drawn) [Example 126, 2-(2,6-dioxopiperidin-3-yl)-1-oxo-N-((R)-2,2,2-trifluoro-1-(5-(trifluoromethyl)pyridin-2-yl)ethyl)isoindoline-5-carboxamide], the DC50 is under 100 nM and the Y result was “** (a Y value (shown as**) of 20%<Y≤35%)”.

As to `O=C1CCC(N2Cc3cc(C(=O)N[C@H](c4ncc(Cl)cc4F)C(F)(F)F)ccc3C2=O)C(=O)N1` (stereo partly drawn) [Example 127, N-((R)-1-(5-chloro-3-fluoropyridin-2-yl)-2,2,2-trifluoroethyl)-2-(2,6-dioxopiperidin-3-yl)-1-oxoisoindoline-5-carboxamide], the half-maximal degradation concentration (DC50) was under 100 nM and the Y entry is given as “* (a Y value (shown as *) of 0<Y≤20%)”.

For `Cc1ccccc1[C@@H](NC(=O)c1ccc2c(c1F)CN(C1CCC(=O)NC1=O)C2=O)C(F)(F)F` (stereo partly drawn) [Example 128, 2-(2,6-dioxopiperidin-3-yl)-4-fluoro-1-oxo-N-((R)-2,2,2-trifluoro-1-o-tolylethyl)isoindoline-5-carboxamide], the DC50 is under 100 nM and the Y result is “* (a Y value (shown as *) of 0<Y≤20%)”.

Consider `O=C1CCC(N2Cc3c(ccc(C(=O)N[C@@H](CC(F)(F)F)c4ccc(Cl)cc4)c3F)C2=O)C(=O)N1` (stereo partly drawn) [Example 129, N-((S)-1-(4-chlorophenyl)-3,3,3-trifluoropropyl)-2-(2,6-dioxopiperidin-3-yl)-4-fluoro-1-oxoisoindoline-5-carboxamide], for which the DC50 lay in the range of 500 to 1000 nM and the Y result is reported as “*** (a Y value (shown as***) of 35%<Y<50%)”.

`O=C1CCC(N2Cc3c(ccc(C(=O)N[C@H](c4ccc(OC5CC5)cc4)C(F)(F)F)c3F)C2=O)C(=O)N1` (stereo partly drawn) [Example 130, N-((R)-1-(4-cyclopropoxyphenyl)-2,2,2-trifluoroethyl)-2-(2,6-dioxopiperidin-3-yl)-4-fluoro-1-oxoisoindoline-5-carboxamide]: the DC50 lay in the range of 100 to 500 nM and the Y result is listed as “** (a Y value (shown as**) of 20%<Y≤35%)”.

`C[C@@H](NC(=O)c1ccc2c(c1)CN(C1CCC(=O)NC1=O)C2=O)c1ccccc1C#N` (stereo partly drawn) [Example 131, N-((R)-1-(2-cyanophenyl)ethyl)-2-(2,6-dioxopiperidin-3-yl)-1-oxoisoindoline-5-carboxamide]: the DC50 is under 100 nM and the Y result was “** (a Y value (shown as**) of 20%<Y≤35%)”.

For the molecule `C[C@@H](NC(=O)c1ccc2c(c1)CN(C1CCC(=O)NC1=O)C2=O)C1CCCC1` (stereo partly drawn) [Example 132], the DC50 lay in the range of 100 to 500 nM and the Y entry was “** (a Y value (shown as**) of 20%<Y≤35%)”.

As to `O=C1CCC(N2Cc3cc(C(=O)N[C@H](c4ncc(F)cc4F)C(F)(F)F)ccc3C2=O)C(=O)N1` (stereo partly drawn) [Example 133, N-((R)-1-(3,5-difluoropyridin-2-yl)-2,2,2-trifluoroethyl)-2-(2,6-dioxopiperidin-3-yl)-1-oxoisoindoline-5-carboxamide], the DC50 was under 100 nM and the Y result is listed as “* (a Y value (shown as *) of 0<Y≤20%)”.

On to `Cc1cccc([C@@H](NC(=O)c2ccc3c(c2F)CN(C2CCC(=O)NC2=O)C3=O)C(F)(F)F)c1` (stereo partly drawn) [Example 134, 2-(2,6-dioxopiperidin-3-yl)-4-fluoro-1-oxo-N-((R)-2,2,2-trifluoro-1-m-tolylethyl)isoindoline-5-carboxamide], for which the DC50 was under 100 nM and the Y entry is on record as “** (a Y value (shown as**) of 20%<Y≤35%)”.

As for `O=C1CCC(N2Cc3c(ccc(C(=O)N[C@H](c4ccc(OC(F)(F)F)cc4)C(F)(F)F)c3F)C2=O)C(=O)N1` (stereo partly drawn) [Example 135, 2-(2,6-dioxopiperidin-3-yl)-4-fluoro-1-oxo-N-((R)-2,2,2-trifluoro-1-(4-(trifluoromethoxy)phenyl)ethyl)isoindoline-5-carboxamide], the DC50 was in the range of 100 to 500 nM and the Y result is on record as “** (a Y value (shown as**) of 20%<Y≤35%)”.

For the molecule `O=C1CCC(N2Cc3c(ccc(C(=O)N[C@H](c4ccccc4OC(F)(F)F)C(F)(F)F)c3F)C2=O)C(=O)N1` (stereo partly drawn) [Example 136, 2-(2,6-dioxopiperidin-3-yl)-4-fluoro-1-oxo-N-((R)-2,2,2-trifluoro-1-(2-(trifluoromethoxy)phenyl)ethyl)isoindoline-5-carboxamide], the DC50 was under 100 nM and the Y result is recorded as “* (a Y value (shown as *) of 0<Y≤20%)”.

As for `O=C1CCC(N2Cc3c(ccc(C(=O)N[C@H](C4CCCC4)C(F)(F)F)c3F)C2=O)C(=O)N1` (stereo partly drawn) [Example 137, N-((R)-1-cyclopentyl-2,2,2-trifluoroethyl)-2-(2,6-dioxopiperidin-3-yl)-4-fluoro-1-oxoisoindoline-5-carboxamide], the DC50 was under 100 nM and the Y result was “* (a Y value (shown as *) of 0<Y≤20%)”.

`O=C1CCC(N2Cc3c(ccc(C(=O)N[C@@H](C(F)(F)F)C45CC(C4)C5)c3F)C2=O)C(=O)N1` (stereo partly drawn) [Example 138, N-((R)-1-(bicyclo[1.1.1]pentan-1-yl)-2,2,2-trifluoroethyl)-2-(2,6-dioxopiperidin-3-yl)-4-fluoro-1-oxoisoindoline-5-carboxamide]: the DC50 was under 100 nM and the Y entry was “* (a Y value (shown as *) of 0<Y≤20%)”.

Consider `O=C1CCC(N2Cc3c(ccc(C(=O)N[C@H](c4ncccc4Cl)C(F)(F)F)c3F)C2=O)C(=O)N1` (stereo partly drawn) [Example 139, N-((R)-1-(3-chloropyridin-2-yl)-2,2,2-trifluoroethyl)-2-(2,6-dioxopiperidin-3-yl)-4-fluoro-1-oxoisoindoline-5-carboxamide], for which the 50% degradation concentration (DC50) is under 100 nM and the Y result is given as “* (a Y value (shown as *) of 0<Y≤20%)”.

As for `O=C1CCC(N2Cc3cc(C(=O)N[C@H](c4cccc(CN5CCOCC5)c4)C(F)(F)F)ccc3C2=O)C(=O)N1` (stereo partly drawn) [Example 140, 2-(2,6-dioxopiperidin-3-yl)-1-oxo-N-((R)-2,2,2-trifluoro-1-(3-(morpholinomethyl)phenyl)ethyl)isoindoline-5-carboxamide], the half-maximal degradation concentration (DC50) was under 100 nM and the Y entry is given as “* (a Y value (shown as *) of 0<Y≤20%)”.

In the case of `CN(C)Cc1ccc([C@@H](NC(=O)c2ccc3c(c2)CN(C2CCC(=O)NC2=O)C3=O)C(F)(F)F)cc1` (stereo partly drawn) [Example 141, N-((R)-1-(4-((dimethylamino)methyl)phenyl)-2,2,2-trifluoroethyl)-2-(2,6-dioxopiperidin-3-yl)-1-oxoisoindoline-5-carboxamide], the DC50 is under 100 nM and the Y entry is on record as “* (a Y value (shown as *) of 0<Y≤20%)”.

In the case of `O=C1CCC(N2Cc3cc(C(=O)N[C@H](c4ccc(CN5CCOCC5)cc4)C(F)(F)F)ccc3C2=O)C(=O)N1` (stereo partly drawn) [Example 142, 2-(2,6-dioxopiperidin-3-yl)-1-oxo-N-((R)-2,2,2-trifluoro-1-(4-(morpholinomethyl)phenyl)ethyl)isoindoline-5-carboxamide], the half-maximal degradation concentration (DC50) is under 100 nM and the Y result is reported as “* (a Y value (shown as *) of 0<Y≤20%)”.

With `O=C1CCC(N2Cc3cc(C(=O)N[C@H](C4CCN(CC(F)(F)F)CC4)C(F)(F)F)ccc3C2=O)C(=O)N1` (stereo partly drawn) [Example 143, 2-(2,6-dioxopiperidin-3-yl)-1-oxo-N-((R)-2,2,2-trifluoro-1-(1-(2,2,2-trifluoroethyl)piperidin-4-yl)ethyl)isoindoline-5-carboxamide], the DC50 fell in the range of 100 to 500 nM and the Y entry is recorded as “* (a Y value (shown as *) of 0<Y≤20%)”.

As for `Cc1ccc([C@@H](NC(=O)c2ccc3c(c2F)CN(C2CCC(=O)NC2=O)C3=O)C(F)(F)F)cc1` (stereo partly drawn) [Example 144, 2-(2,6-dioxopiperidin-3-yl)-4-fluoro-1-oxo-N-((R)-2,2,2-trifluoro-1-p-tolylethyl)isoindoline-5-carboxamide], the DC50 lay in the range of 100 to 500 nM and the Y result was “* (a Y value (shown as *) of 0<Y≤20%)”.

Regarding `O=C1CCC(N2Cc3c(ccc(C(=O)N[C@H](c4ccc(F)cc4Cl)C(F)(F)F)c3F)C2=O)C(=O)N1` (stereo partly drawn) [Example 145, N-((R)-1-(2-chloro-4-fluorophenyl)-2,2,2-trifluoroethyl)-2-(2,6-dioxopiperidin-3-yl)-4-fluoro-1-oxoisoindoline-5-carboxamide], the DC50 was under 100 nM and the Y result is on record as “* (a Y value (shown as *) of 0<Y≤20%)”.

`O=C1CCC(N2Cc3c(ccc(C(=O)N[C@@H](CC(F)(F)F)c4cccc(F)c4)c3F)C2=O)C(=O)N1` (stereo partly drawn) [Example 146, 2-(2,6-dioxopiperidin-3-yl)-4-fluoro-1-oxo-N-((S)-3,3,3-trifluoro-1-(3-fluorophenyl)propyl)isoindoline-5-carboxamide]: the DC50 was in the range of 100 to 500 nM and the Y result is listed as “** (a Y value (shown as**) of 20%<Y≤35%)”.
